Common to all, as to assay: inhibition of tumour cell growth, NCI panel, 48 h
Assay [1] relates to NCI-H226 lung.
The test system of assay [2] is SK-MEL-2 melanoma.
Assay [3] deals with UACC-257 melanoma.
For assay [4], the system named is CCRF-CEM leukemia.
Assay [5] deals with OVCAR-8 ovarian.
The subject of assay [6] is HOP-92 NSCLC.
For assay [7], the system named is U251 CNS.
The test system of assay [8] is IGROV1 ovarian.
Assay [9] has as its system SR leukemia.
Assay [10] concerns SF-295 CNS.

18 molecules from PubChem BioAssay (NCI) can be followed below.

Several values for one entry are separate records, joined by “and”; a condition that tells them apart may be missing. Equal entries are not always repeated.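 Assay format: 96-well plates, 48-hour exposure. GI50: concentration for 50% inhibition of growth. TGI: total growth inhibition.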 Some results are limits rather than exact numbers.

As for `C[C@@H]1N=C(c2ccc(Br)cc2)Nc2nc3ccccn3c2C1=O`, the GI50 in [1] was 14.7 µM; in assay [2], 15.7 µM; in [3], 35.2 µM; in assay [4], 6.56 µM; in assay [5], 17 µM; in assay [6], 1.16 µM. Also, the results for the GI50 in assay [7], in assay [8] and in [9] were 6.64 µM, 51.9 µM and 2.42 µM, respectively. The TGI in [1] is more than 100 µM; in assay [2], more than 100 µM; in assay [3], more than 100 µM; in [4], more than 100 µM; in assay [5], more than 100 µM; in assay [6], 23 µM. The TGI in [7], in [8] and in assay [9] was more than 100 µM throughout.
Take `c1cc(OCCN2CCCCC2)ccc1CNc1ccc2nc(CCC3CCCCC3)[nH]c2c1`: the GI50 in [1] was 1.83 µM; in assay [2] it was 1.88 µM; in [3], 1.91 µM; in assay [4], 1.97 µM; in assay [5], 2.42 µM; in assay [6], 0.565 µM. Also, the GI50 in [7] is 1.49 µM; in assay [8], 2.32 µM; in assay [10], 1.98 µM; in assay [9] it was 0.617 µM. In addition, the TGI in assay [1] amounted to 4.29 µM; in [2], 3.62 µM; in assay [3], 3.89 µM; in [4], 8.34 µM; in assay [5], 6.82 µM; in assay [6], 2.45 µM. Moreover, the TGI in [7] worked out at 2.94 µM; in [8], 6.59 µM; in assay [10] it was 3.88 µM; in assay [9], 3.01 µM.
In the case of `CCOc1ccc(Nc2nc(-c3ccc4c(c3)NC(=O)CO4)cs2)cc1`, the GI50 in assay [1] was 10 µM; in assay [2], 3.98 µM; in assay [3], 3.37 µM; in assay [4], 6.28 µM; in [5] it was 4 µM; in [6] it was 12.4 µM. The GI50 in [7] is 10.7 µM; in assay [8], 15.5 µM; in assay [10], 4.92 µM; in assay [9], 4.68 µM. Further, the TGI in assay [1] is more than 100 µM; in assay [2] it was 13.8 µM; in assay [3], 11 µM; in assay [4], more than 100 µM; in assay [5], more than 100 µM; in assay [6], more than 100 µM. Further, the TGI in assay [7], in [8], in [10] and in [9] was more than 100 µM in each case.
For `CCCN1CCN(c2ccc3nc(-c4ccc5nc(-c6cc(OC)ccc6OC)[nH]c5c4)[nH]c3c2)CC1`, the GI50 in assay [1] was 20.2 µM; in assay [2] it was 19.7 µM; in [3] it was 20 µM; in assay [4], 2.22 µM; in assay [6], 11 µM; in [7], 1.69 µM. Besides, the GI50 in assay [8] is 13.5 µM; in [10], 15.7 µM; in assay [9], 2.55 µM. For the same molecule, the TGI in assay [1] worked out at 46 µM; in assay [2] it was 37.2 µM; in [3] it was 39.2 µM; in assay [4] it was 4.49 µM; in assay [6], 27 µM; in assay [7] it was 3.1 µM. Moreover, the TGI in assay [8] was found to be 30.3 µM; in assay [10], 30.1 µM; in [9], 5.54 µM.
Consider `COc1ccc(C2=C(c3ccc(OC)c(OC)c3)C(=O)OC2)cc1`, for which the GI50 in assay [1] was 0.0169 µM; in assay [3], more than 47.4 µM; in assay [4], 0.206 µM; in assay [5], 0.0451 µM; in assay [6], 3.48 µM; in assay [7], less than 0.01 µM. In addition, the figures for the GI50 in [8], in assay [10] and in [9] were 0.0768 µM, less than 0.0496 µM and less than 0.01 µM, respectively. Further, the TGI in assay [1] is 2.92 µM; in assay [2], more than 100 µM; in assay [3] it was more than 100 µM; in assay [4] it was 0.826 µM; in assay [5] it was more than 100 µM; in [6], 32.6 µM. In addition, the values for the TGI in [7], in assay [8] and in [9] were more than 59.6 µM, more than 62.8 µM and 0.0192 µM, respectively.
Turning to `Cn1nc(-c2ccccc2)nc1[N+](=O)[O-]`, the TGI in assay [1], in assay [2], in assay [3], in assay [4], in assay [5] and in [6] was more than 10 µM in each case. Besides, the TGI in assay [7], in [8], in assay [10] and in assay [9] was more than 10 µM each time.
As to `CC1(C)CC(n2cnc(-c3ccc(F)cc3)c2-c2ccnc(N)n2)CC(C)(C)N1`, the GI50 in [1] is more than 13.9 µM; in [2] it was more than 25 µM; in assay [3] it was more than 25 µM; in assay [4], more than 25 µM; in [5] it was 15.6 µM; in assay [6] it was 7.19 µM. Also, the GI50 in assay [7] is more than 20.1 µM; in [8], 24.7 µM; in [10], more than 25 µM; in [9] it was more than 19.3 µM. For the same molecule, the TGI in assay [1], in assay [2], in assay [3], in assay [4], in [5] and in assay [6] was more than 25 µM each time. The TGI in assay [7], in [8], in assay [10] and in assay [9] was more than 25 µM each time.
On to `c1ccc2c(c1)-c1ccccc1C2N1CC2CCC(CC2)C1`, for which the TGI in [1] is 41.5 µM; in assay [2] it was 30.7 µM; in [3], 47.1 µM; in assay [4], 35.8 µM; in assay [5] it was more than 100 µM; in [6], 48.5 µM. Further, the TGI in assay [7] turned out to be 30.9 µM; in [8] it was 69.8 µM; in assay [10], 38.1 µM; in assay [9], 50.6 µM.
In the case of `Cc1cc2cc3c(C)cc(=O)oc3c(C)c2o1`, the TGI in assay [1], in [2], in assay [3], in assay [4], in [5] and in assay [6] was more than 100 µM throughout. The TGI in [7], in assay [8], in assay [10] and in assay [9] was more than 100 µM each time.
Regarding `Cc1cc(-c2nnc(N)nc2-c2ccc(F)cc2)cc(Cl)n1`, the GI50 in assay [1] was 46.9 µM; in assay [2] it was more than 100 µM; in [3] it was 78.9 µM; in assay [4], 93.1 µM; in assay [5], more than 100 µM; in [6] it was 11.5 µM. The GI50 in assay [7] is more than 100 µM; in [8], more than 100 µM; in [10], 72.7 µM; in assay [9], 64 µM. For the same molecule, the TGI in assay [1], in assay [2], in assay [3], in [4], in assay [5] and in [6] was more than 100 µM each time. For the same molecule, the TGI in assay [7], in assay [8], in assay [10] and in assay [9] was more than 100 µM in each case.
With `COc1ccc2c(CN3CCC[C@H]3C(=O)O)cc3cc4c(cc3c2c1)OCO4`, the GI50 in assay [1] was 17 µM; in assay [2], 12.6 µM; in assay [3] it was 12.6 µM; in assay [4], 10.2 µM; in assay [5] it was 5.65 µM; in assay [6], 17.4 µM. Moreover, the GI50 was 13.2 µM in [7], 25.4 µM in assay [8], 8.88 µM in [10] and 6.23 µM in assay [9]. The TGI in [1] was more than 100 µM; in assay [2], 29.8 µM; in [3], 45.8 µM; in assay [4], more than 100 µM; in [5] it was 82.3 µM; in assay [6] it was 82.5 µM. In addition, the TGI in [7] was more than 100 µM; in assay [8], more than 100 µM; in [10], 39.4 µM; in assay [9], more than 100 µM.
With `CC(=O)/C(=C\C1=CCCO1)C(=O)Nc1ccccc1C`, the TGI in assay [1], in [2], in [3], in assay [4], in assay [5] and in assay [6] was more than 100 µM throughout. Moreover, the TGI in assay [7], in assay [8], in [10] and in assay [9] was more than 100 µM in each case.
As for `C=C1C(=O)[C@@]23CC1C(O)[C@@H](OC(C)=O)[C@@H]2C1(C)C(OC(C)=O)C[C@@H](OC(C)=O)C(C)(C)[C@@H]1C[C@H]3OC(C)=O` (some centres undefined), the GI50 was 3.11 µg/mL in assay [1]; > 10 µM and 2.46 µg/mL in [2]; 3.55 µM and 2.25 µg/mL in assay [3]; 361 nM and 0.239 µg/mL in [4]; 3.37 µM and 3.94 µg/mL in assay [5]; 3.6 µM and 1.95 µg/mL in assay [6]. Further, the GI50 in assay [7] is > 10 µM and 13.9 µg/mL; in assay [8] it was > 10 µM and 13.1 µg/mL; in assay [10] it was > 10 µM and 11.6 µg/mL; in assay [9], 1.7 µM and 0.255 µg/mL. For the same molecule, the TGI in assay [1] was > 10 µM and 7.24 µg/mL; in [2], > 10 µM and 5.65 µg/mL; in assay [3] it was > 10 µM and 5.06 µg/mL; in assay [4], 1.9 µM and 5.21 µg/mL; in [5] it was > 10 µM and 20.1 µg/mL; in assay [6], > 10 µM and 3.84 µg/mL. Moreover, the TGI in assay [7] is > 10 µM and 27 µg/mL; in assay [8], > 10 µM and 27.7 µg/mL; in [10] it was > 10 µM and 25.6 µg/mL; in assay [9], 4.6 µM and 1.63 µg/mL.
In the case of `CC(=O)Nc1c(C)ccc2c1C(=O)c1ccccc1C2=O`, the TGI in [1], in assay [2], in assay [3], in [4], in assay [5] and in assay [6] was more than 100 µM each time. Further, the TGI in assay [7], in [8], in assay [10] and in [9] was more than 100 µM throughout.
Regarding `CN(C)C1CCN(C(=O)c2ccc(NC(=O)Nc3ccc(-c4nc(N5CCOCC5)nc(N5CCOCC5)n4)cc3)cc2)CC1`, the TGI in assay [1] is 0.38 µM and 1.95 µM and 0.257 µM; in [2] it was 0.0744 µM and 0.113 µM and 0.09 µM; in assay [3], 0.151 µM and 0.386 µM and 0.243 µM; in [6], 0.0288 µM and 0.0544 µM and 0.116 µM; in [7], 15.1 µM and 2.5 µM and 2.44 µM; in assay [8] it was 0.0553 µM and 0.0574 µM and 0.141 µM. For the same molecule, in [10], the TGI was 0.577 µM and 0.502 µM and 3.52 µM. Besides, the GI50 in assay [2] was 0.0236 µM and 0.0243 µM and 0.0196 µM; in [3] it was 0.0289 µM and 0.0633 µM and 0.0266 µM; in assay [4], 0.0217 µM and 0.0491 µM and 0.104 µM; in assay [5], 0.0545 µM and 0.0926 µM and 0.437 µM; in [6], < 0.01 µM and 0.00627 µM and 0.0138 µM; in [7], 0.0171 µM and 0.0116 µM and 0.0375 µM. In addition, the GI50 in assay [8] is < 0.01 µM and 0.00788 µM and 0.0103 µM; in assay [10], 0.0732 µM and 0.0711 µM and 0.639 µM; in assay [9], 0.0666 µM and 0.0123 µM.
For `CCOC(=O)NC(=O)c1cn(CCCOC(=O)CCCCCCCCCCC(=O)OCCCn2cc(C(=O)NC(=O)OCC)c(=O)n(C)c2=O)c(=O)n(C)c1=O`, the TGI in assay [1], in assay [2], in assay [3], in [4], in assay [5] and in assay [6] was more than 100 µM each time. Also, the TGI in assay [7], in assay [8], in assay [10] and in assay [9] was more than 100 µM each time.
Consider `COc1cc(C(c2cc3c(cc2O)OCO3)N2CCCCC2)cc(OC)c1OC` (centres undefined), for which the TGI was 41.6 µM in assay [1]; 32.9 µM in assay [2]; 25.7 µM in [3]; 19.2 µM in assay [4]; 28.1 µM in assay [5]; 23.1 µM in assay [6]. For the same molecule, the TGI in assay [7] was 30.2 µM; in [8], 32.4 µM; in assay [10], more than 100 µM; in assay [9], more than 23.5 µM.
Regarding `COC(=O)C(=O)C(C#N)c1ccc(CC#N)cc1` (centres undefined), the TGI in assay [1], in [2], in assay [3], in assay [4], in assay [6] and in assay [7] was more than 100 µM each time. In addition, the TGI in assay [8], in assay [10] and in assay [9] was more than 100 µM throughout.
